We go through 22 molecules from patent publication US10501421B1, “Substituted benzimidazoles as modulators of Ras signaling” (VANDERBILT UNIVERSITY, priority 2017, dated 2019).

Where a name gives a salt, the structure may show the parent alone.

As a reminder, the EC50 is the concentration that produces a half-maximal response. A higher EC50 goes with weaker potency. What is called Ki is a measure of affinity in units of concentration, obtained from inhibition or displacement.

Experiment [1] addresses Ras GEF SOS (Son of Sevenless) (Homo sapiens, UniProt Q07889). Kind of experiment: SOS-mediated nucleotide exchange on Ras (BODIPY-GDP fluorescence). The format is biochemical. As to conditions: SOS-mediated exchange of BODIPY-GDP for GTP on Ras. The method in brief:
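Exchange rates were taken from single-exponential fits of the fluorescence time course as BODIPY-GDP on Ras was replaced by GTP. Compound went in first, then GTP and SOS. Mean rates plotted against concentration gave EC50 by four-parameter dose-response fitting.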

The target of the next experiment is T1, Son of Sevenless (SOS) (Homo sapiens, UniProt Q07889).
T1 sequence (Q07889 564-1049 limits assumed): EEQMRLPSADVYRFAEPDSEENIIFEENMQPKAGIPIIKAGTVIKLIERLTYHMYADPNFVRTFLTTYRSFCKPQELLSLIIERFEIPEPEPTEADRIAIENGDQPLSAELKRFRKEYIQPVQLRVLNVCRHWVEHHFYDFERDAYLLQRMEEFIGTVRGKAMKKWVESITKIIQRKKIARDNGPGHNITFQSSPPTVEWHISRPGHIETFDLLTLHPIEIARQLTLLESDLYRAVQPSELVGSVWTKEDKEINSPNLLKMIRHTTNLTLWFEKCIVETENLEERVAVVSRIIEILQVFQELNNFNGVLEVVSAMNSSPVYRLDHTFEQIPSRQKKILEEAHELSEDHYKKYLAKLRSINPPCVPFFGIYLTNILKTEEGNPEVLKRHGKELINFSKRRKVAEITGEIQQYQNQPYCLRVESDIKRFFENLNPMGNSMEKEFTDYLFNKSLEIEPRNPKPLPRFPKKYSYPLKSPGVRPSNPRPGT
The experiment can be described thus: Binding to SOS, fluorescence polarization anisotropy (FPA) probe displacement. To be noted: displacement of FITC-conjugated probe (Example 285), affinity calculated from IC50. Summed up: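 Test compounds were titrated against SOS pre-bound to a fluorescein-labelled probe, with anisotropy plotted versus compound concentration. Binding affinities were derived from IC50 values obtained by four-parameter dose-response fitting.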

Chain of Ras GEF SOS (Son of Sevenless) (P01112 1-166 partner limits assumed, one chain of several): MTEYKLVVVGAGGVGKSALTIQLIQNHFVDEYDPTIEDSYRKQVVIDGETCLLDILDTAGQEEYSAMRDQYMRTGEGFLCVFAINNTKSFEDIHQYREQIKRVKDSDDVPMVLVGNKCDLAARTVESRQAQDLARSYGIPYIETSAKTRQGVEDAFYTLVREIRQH

`Cc1cc2c(nc(N3CCNCC3)n2Cc2ccc(F)c(C)c2)c(-c2ccccc2F)n1` [Example 217, 1-(4-fluoro-3-methylbenzyl)-4-(2-fluorophenyl)-6-methyl-2-(piperazin-1-yl)-1H-imidazo[4,5-c]pyridine]: the EC50 in experiment [1] was in the range of 1 to 5 µM. In addition, on Son of Sevenless (SOS), the Ki is above 5000 nM.

Molecule `CN(CCO)Cc1cc(Cl)cc2c1nc(N1CCNCC1)n2Cc1ccc(F)c(Cl)c1` [Example 134, 2-(((6-chloro-1-(3-chloro-4-fluorobenzyl)-2-(piperazin-1-yl)-1H-benzo[d]imidazol-4-yl)methyl)(methyl)amino)ethan-1-ol trifluoroacetate] came in with an EC50 in experiment [1] below 1 µM. Also, the Ki at Son of Sevenless (SOS) was 500 to 1000 nM.

For `Cc1cc(-c2ccccc2C)c2ncn(Cc3ccc(F)c(Cl)c3)c2c1` [Example 143, 1-(3-chloro-4-fluorobenzyl)-6-methyl-4-(o-tolyl)-1H-benzo[d]imidazole], in experiment [1], the EC50 was in the range of 5 to 30 µM. In addition, the Ki at Son of Sevenless (SOS) was above 5000 nM.

In turn, `Cc1cc2c(nc(N3CCNCC3)n2Cc2ccc(F)c(Cl)c2)c(CCN)c1C` [Example 101, 2-(1-(3-chloro-4-fluorobenzyl)-5,6-dimethyl-2-(piperazin-1-yl)-1H-benzo[d]imidazol-4-yl)ethan-1-amine trifluoroacetate] returned an EC50 in experiment [1] of 1 to 5 µM. Further, the Ki on Son of Sevenless (SOS) was 1000 to 5000 nM.

In turn, `Fc1ccc(Cn2c(N3CCNCC3)nc3ccc(Cl)cc32)cc1Cl` [Example 73, 6-chloro-1-(3-chloro-4-fluorobenzyl)-2-(piperazin-1-yl)-1H-benzo[d]imidazole trifluoroacetate] gave an EC50 in experiment [1] below 1 µM. At Son of Sevenless (SOS), the Ki is 500 to 1000 nM.

In turn, `Clc1ccc(Cn2c(C3CCNCC3)nc3ccccc32)cc1` [Example 58, 1-(4-chlorobenzyl)-2-(piperidin-4-yl)-1H-benzo[d]imidazole trifluoroacetate] yielded an EC50 in experiment [1] of 5 to 30 µM. Also, the Ki on Son of Sevenless (SOS) is above 5000 nM.

Consider `Cc1cc2nc(N3CCNCC3)n(Cc3ccc(F)cc3)c2cc1C` [Example 21, 1-(4-fluorobenzyl)-5,6-dimethyl-2-(piperazin-1-yl)-1H-benzo[d]imidazole trifluoroacetate], for which the concentration giving a half-maximal response (EC50) in experiment [1] is 5 to 30 µM. The inhibitory constant (Ki) at Son of Sevenless (SOS) is above 5000 nM.

`Cc1cc2c(nc(N3CCNCC3)n2Cc2ccc(F)c(Cl)c2)c(-c2cccnc2)c1C` [Example 265, 1-[(3-chloro-4-fluorophenyl)methyl]-5,6-dimethyl-2-piperazin-1-yl-4-pyridin-3-ylbenzimidazole] came in with an EC50 in experiment [1] of 1 to 5 µM. Moreover, the Ki at Son of Sevenless (SOS) was 1000 to 5000 nM.

The molecule `Cc1cc(OCCN(C)C)c2nc(N3CCNCC3)n(Cc3cc(C)c(F)c(C)c3)c2c1` [Example 203, 2-((1-(4-fluoro-3,5-dimethylbenzyl)-6-methyl-2-(piperazin-1-yl)-1H-benzo[d]imidazol-4-yl)oxy)-N,N-dimethylethan-1-amine] came in with an EC50 in experiment [1] below 1 µM. The inhibitory constant (Ki) on Son of Sevenless (SOS) was 500 to 1000 nM.

For the molecule `CCc1cc2c(cc1C)nc(N1CCNCC1)n2Cc1ccc(F)c(Cl)c1` [Example 66, 1-(3-chloro-4-fluorobenzyl)-6-ethyl-5-methyl-2-(piperazin-1-yl)-1H-benzo[d]imidazole trifluoroacetate], the EC50 in experiment [1] fell in the range of 5 to 30 µM. The inhibitory constant (Ki) at Son of Sevenless (SOS) is above 5000 nM.

In experiment [1], `Cc1cc(Cn2c(N3CCNCC3)nc3c(OCCN4CCN(C)CC4)cccc32)ccc1F` [Example 209, 1-(4-fluoro-3-methylbenzyl)-4-(2-(4-methylpiperazin-1-yl)ethoxy)-2-(piperazin-1-yl)-1H-benzo[d]imidazole] yielded an EC50 below 1 µM. For the same molecule, the Ki at Son of Sevenless (SOS) was above 5000 nM.

`Cc1cc(Cn2c(N3CCNCC3)nc3c(-c4ccnn4-c4ccc(C(C)(C)C)cc4)cc(Cl)cc32)cc(C)c1F` [Example 178, 4-(1-(4-(tert-butyl)phenyl)-1H-pyrazol-5-yl)-6-chloro-1-(4-fluoro-3,5-dimethylbenzyl)-2-(piperazin-1-yl)-1H-benzo[d]imidazole trifluoroacetate]: the EC50 in experiment [1] was 5 to 30 µM. Besides, the Ki on Son of Sevenless (SOS) was above 5000 nM.

For `CC(C)n1nccc1-c1cc(Cl)cc2c1nc(N1CCNCC1)n2Cc1ccc(F)c(Cl)c1` [Example 176, 6-chloro-1-(3-chloro-4-fluorobenzyl)-4-(1-isopropyl-1H-pyrazol-5-yl)-2-(piperazin-1-yl)-1H-benzo[d]imidazole trifluoroacetate], in experiment [1], the EC50 lay within 1 to 5 µM. For the same molecule, the Ki at Son of Sevenless (SOS) is below 500 nM.

`Cc1cc(OC2CCNC2)c2nc(N3CCNCC3)n(Cc3cc(C)c(F)c(C)c3)c2c1` (centres unmarked) [Example 327, 1-(4-fluoro-3,5-dimethylbenzyl)-6-methyl-2-(piperazin-1-yl)-4-(pyrrolidin-3-yloxy)-1H-benzo[d]imidazole]: in experiment [1], the EC50 was below 1 µM. On Son of Sevenless (SOS), the Ki was 500 to 1000 nM.

On to `Cc1cc2nc(NCCN)n(Cc3ccc(F)c(Cl)c3)c2cc1Br` [Example 64, N^1-(6-bromo-1-(3-chloro-4-fluorobenzyl)-5-methyl-1H-benzo[d]imidazol-2-yl)ethane-1,2-diamine trifluoroacetate], for which the EC50 in experiment [1] was 1 to 5 µM. In addition, the inhibition constant (Ki) on Son of Sevenless (SOS) is 500 to 1000 nM.

In turn, `Fc1ccc(Cn2c(C3CCNCC3)nc3ccccc32)cc1` [Example 56, 1-(4-fluorobenzyl)-2-(piperidin-4-yl)-1H-benzo[d]imidazole trifluoroacetate] displayed an EC50 in experiment [1] of 5 to 30 µM. Further, at Son of Sevenless (SOS), the Ki was above 5000 nM.

Molecule `Cc1cc(Cn2c(N3CCNCC3)nc3c(-c4ccccc4Cl)cc(Cl)cc32)cc(C)c1F` [Example 307, 6-chloro-4-(2-chlorophenyl)-1-(4-fluoro-3,5-dimethylbenzyl)-2-(piperazin-1-yl)-1H-benzo[d]imidazole] gave a concentration giving a half-maximal response (EC50) in experiment [1] of 1 to 5 µM. Further, the Ki at Son of Sevenless (SOS) is below 500 nM.

Regarding `Fc1ccc(Cn2c(N3CCNCC3)nc3ccc(Br)cc32)cc1Cl` [Example 63, 6-bromo-1-(3-chloro-4-fluorobenzyl)-2-(piperazin-1-yl)-1H-benzo[d]imidazole trifluoroacetate], the EC50 in experiment [1] is below 1 µM. Also, the Ki at Son of Sevenless (SOS) is 500 to 1000 nM.

`Cc1cc(Cn2c(N3CCNCC3)nc3c(C(N)C(=O)O)cc(Cl)cc32)cc(C)c1F` (centres unmarked) [Example 282, 2-amino-2-[6-chloro-1-[(4-fluoro-3,5-dimethylphenyl)methyl]-2-piperazin-1-ylbenzimidazol-4-yl]acetic acid]: in experiment [1], the EC50 was 1 to 5 µM. Besides, the Ki on Son of Sevenless (SOS) was 500 to 1000 nM.

In turn, `Cc1cc(Cn2c(N3CCNCC3)nc3c(-c4ccc(CN)cc4)cc(Cl)cc32)cc(C)c1F` [Example 122, (4-(6-chloro-1-(4-fluoro-3,5-dimethylbenzyl)-2-(piperazin-1-yl)-1H-benzo[d]imidazol-4-yl)phenyl)methanamine trifluoroacetate] yielded an EC50 in experiment [1] of 1 to 5 µM. Moreover, the inhibition constant (Ki) at Son of Sevenless (SOS) was 500 to 1000 nM.

`NCCNc1nc2ccc(C(F)(F)F)cc2n1Cc1ccc(F)c(Cl)c1` [Example 72, N^1-(1-(3-chloro-4-fluorobenzyl)-6-(trifluoromethyl)-1H-benzo[d]imidazol-2-yl)ethane-1,2-diamine trifluoroacetate] came in with a half-maximal effective concentration (EC50) in experiment [1] of 1 to 5 µM. Besides, the Ki on Son of Sevenless (SOS) is 1000 to 5000 nM.

The molecule `Cc1cc2c(nc(N3CCNCC3)n2Cc2ccc(F)c(C)c2)c(-c2cccnc2C)n1` [Example 227, 1-(4-fluoro-3-methylbenzyl)-6-methyl-4-(2-methylpyridin-3-yl)-2-(piperazin-1-yl)-1H-imidazo[4,5-c]pyridine] gave an EC50 in experiment [1] of 1 to 5 µM. Besides, on Son of Sevenless (SOS), the Ki is above 5000 nM.
